For assay [1], the target named is T1, Recombinant human LTC4 synthase (Homo sapiens, UniProt Q16873).
T1 construct: made in house; host or cells: Pichia pastoris
T1 sequence (Q16873 1-150): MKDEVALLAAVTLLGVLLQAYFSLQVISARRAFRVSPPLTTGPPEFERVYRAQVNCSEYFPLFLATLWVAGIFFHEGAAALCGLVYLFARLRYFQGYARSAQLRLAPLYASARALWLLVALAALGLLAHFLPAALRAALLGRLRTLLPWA
Put plainly: LTC4 synthase in vitro assay (HPLC method). It counts as biochemical. The following applies: inhibition of LTC4 synthase. The protocol: In the assay, LTC4 synthase catalyses the reaction where the substrate LTA4 methyl ester is converted to the corresponding LTC4 methyl ester. Recombinant human LTC4 synthase is expressed in Piccia pastoralis and the purified enzyme is dissolved in 25 mM Tris-buffer pH 7.8 and stored at −80° C. The assay is performed in phosphate buffered saline (PBS) pH 7.4, supplemented with 5 mM glutathione (GSH). The reaction is terminated by addition of acetonitrile/MeOH/acetic acid (50/50/1). The assay is performed at rt in 96-well plates. Analysis of the formed LTC4 methyl ester is performed with reversed phase HPLC (Waters 2795 utilizing an Onyx Monolithic C18 column). The mobile phase consists of acetonitrile/MeOH/H2O (32.5/30/37.5) with 1% acetic acid pH adjusted with NH3 to pH 5.6, and absorbance measured at 280 nm with a Waters 2487 UV-detector.
The following is added chronologically to each well: • 1. 50 μl assay buffer, PBS with 5 mM GSH. • 2. 0.5 μl inhibitor in DMSO (final conc. 1 nM-10 μM). • 3. 2 μl LTC4 synthase in PBS. The total protein concentration in this solution is 0.025 mg/ml. Incubation of the plate at room temperature for 10 minutes. • 4. 1-1.5 μl LTA4 methyl ester (final conc. 10 μM). Incubation of the plate at rt for 1 min. • 5. 50 μl stop solution.
80 μl of the incubation mixture is analysed with HPLC.

For assay [2], the target named is T1, Recombinant human LTC4 synthase. Put plainly: LTC4 synthase in vitro assay (HTRF detection of LTC4). The class given is biochemical. The note with it: HTRF method. Put shortly:
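Pichia-expressed recombinant human LTC4 synthase at 0.5 μg/ml total protein in PBS pH 7.4 with 5 mM GSH, preincubated 10 min at RT with inhibitor (10 μM final). LTA4 (2.5 μM final) was then added for 5 min at RT. LTC4 formed was read by HTRF.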

Setting [3] is: total concentration of title compound in the assay 10 μM.

The record followed here is US20110071197A1, “BIS-ARYL COMPOUNDS FOR USE AS MEDICAMENTS” (priority 2008, published 2011).

As a reminder, the IC50 is the concentration needed to halve the response being measured. In general, inhibition refers to how much of the control response was suppressed. Consider `CCCCOc1ccc(S(=O)(=O)Nc2ccc(Oc3cccc(Oc4ccc(F)c(F)c4)c3)cc2C(=O)O)cc1` [28:1], for which the IC50 in assay [1] is 629 nM. Further, the inhibition at 10 µM in assay [2] (setting [3]) came out at 98%.
With `CC(C)(C)c1ccc(C(=O)Nc2cccc(Oc3ccc(NS(=O)(=O)c4ccc(C(C)(C)C)cc4)c(C(=O)O)c3)c2)cc1` [29:1], the IC50 in assay [1] was determined as 802 nM. In addition, the inhibition at 10 µM in assay [2] (setting [3]) stood at 97%.
For the compound `CC(C)Oc1ccc(C(=O)Nc2ccc(Oc3ccc(NC(=O)c4ccccc4)cc3)cc2/C=C/C(=O)O)cc1` [Example 22:3, (E)-3-[5-(4-Benzoylaminophenoxy)-2-(4-isopropoxy-benzoylamino)-phenyl]acrylic acid], the IC50 in assay [1] was found to be 5110 nM. The inhibition at 10 µM in assay [2] (setting [3]) was found to be 72%.
Turning to `O=C(O)c1cc(Oc2ccc(Nc3ccc(F)cc3)c(C(=O)O)c2)ccc1Nc1ccc(F)cc1` [1:2, 3,3′-oxybis[6-(4-fluorophenyl-amino)benzoic acid]], the IC50 in assay [1] was 845 nM. Besides, the inhibition at 10 µM in assay [2] (setting [3]) is 97%.
In the case of `CCCCOc1ccc(S(=O)(=O)Nc2ccc(Oc3cccc(S(=O)(=O)Nc4ccc(Cl)cc4)c3)cc2C(=O)O)cc1` [19:1, 2-(4-Butoxy-benzenesulfonylamino)-5-[3-(4-chloro-phenylsufamoyl)-phenoxy]-benzoic acid], the concentration for half-maximal inhibition (IC50) in assay [1] came to 1160 nM. Further, in assay [2] (setting [3]), the inhibition at 10 µM stood at 100%.
Take `O=C(Nc1ccc(Sc2ccc(NC(=O)Nc3ccc(C(F)(F)F)cc3)c(C(=O)O)c2)cc1)Nc1ccc(C(F)(F)F)cc1` [14:6, 2-[3-(4-trifluoromethyl-phenyl)ureido]-5-{4-[3-(4-trifluoromethylphenyl)-ureido]phenylsulfanyl}-benzoic acid]: the 50% inhibitory concentration (IC50) in assay [1] amounted to 449 nM. Moreover, the inhibition at 3 µM in assay [2] (compound concentration 3 μM) came to 80%.
For the compound `CCCCc1ccc(S(=O)(=O)Nc2ccc(Sc3ccc(NS(=O)(=O)c4ccc(CCCC)cc4)c(C(=O)O)c3)cc2)cc1` [14:3, 2-(4-butyl-benzenesulfonyl-amino)-5-[4-(4-butyl-benzen-sulfonylamino)phenyl-sulfanyl]benzoic acid], the inhibition at 10 µM in assay [2] (setting [3]) is 98%.
For the compound `O=C(Nc1ccc(Oc2ccc(NC(=O)c3cccc(Cl)c3)c(C(=O)O)c2)cc1C(=O)O)c1ccc(SC(F)(F)F)cc1` [2:1, 5-[3-carboxy-4-(4-(trifluoromethylthio)-benzamido)-phenyloxy]-2-(3-chlorobenz-amido)benzoic acid], in assay [2] (setting [3]), the “% inh.” value is 98%.
For `CCCCc1ccc(C(=O)Nc2ccc(Oc3ccc(N(C(=O)c4ccc(CCCC)cc4)c4ccc(F)cc4)cc3)cc2C(=O)O)cc1` [12:3, 5-(4-((N-4-fluorophenyl)4-butylbenzamido)phenoxy)-2-(4-butylbenzamido)benzoic acid], the inhibition at 10 µM in assay [2] (setting [3]) stood at 83%.
As to `CCCCc1ccc(C(=O)Nc2ccc(Oc3ccc(NS(=O)(=O)c4ccc(S(C)(=O)=O)cc4)cc3)cc2C(=O)O)cc1` [11:8, 2-(4-butylbenzoylamino)-5-[4-(4-methanesulfonylbenzene-sulfonylamino)phenoxy]benzoic acid], the inhibition at 10 µM in assay [2] (setting [3]) came to 98%.
Take `CCCCOc1ccc(S(=O)(=O)Nc2ccc(Oc3ccc(NC(=O)c4ccccc4)cc3)cc2CCC(=O)O)cc1` [Example 22:2, 3-[5-(4-Benzoylaminophenoxy)-2-(4-butoxybenzenesulfonylamino)-phenyl]propionic acid]: the inhibition at 10 µM in assay [2] (setting [3]) is 99%.
On to `CCCCc1ccc(C(=O)Nc2ccc(Oc3ccc(NC(=O)c4ccc(C(F)(F)F)cc4F)cc3)cc2CC(=O)O)cc1` [17:4, {2-(4-butyl-benzoylamino)-5-[4-(2-fluoro-4-trifluoromethyl-benzoylamino)-phenoxy]-phenyl}-acetic acid], for which the inhibition at 10 µM in assay [2] (setting [3]) came to 79%.
Still for that read-out and setting: with `CCCCc1ccc(C(=O)Nc2cccc(Oc3ccc(NC(=O)c4c(F)cccc4F)c(C(=O)O)c3)c2)cc1` [10:1, 5-[(3-(4-(1-butyl)benzoylamino)-phenoxy)]-2-(2,6-difluorobenzoyl-amino)benzoic acid] the figure was 98%.
Same read-out and setting: with `COc1ccc(S(=O)(=O)N(C)c2ccc(Oc3ccc(NC(=O)c4ccccc4Cl)c(C(=O)O)c3)cc2)cc1` [11:22, 2-(2-Chloro-benzoylamino)-5-{4-[(4-methoxybenzenesulfonyl)-methylamino]phenoxy}benzoic acid] the figure was 95%; with `O=C(Nc1ccc(Sc2ccc(NS(=O)(=O)c3ccc(Cl)cc3F)c(C(=O)O)c2)cc1)c1ccc(C(F)(F)F)cc1` [Example 35:2, 2-(4-Chloro-2-fluoro-benzenesulfonylamino)-5-[4-(4-trifluoromethylbenzoylamino)-phenylsulfanyl]benzoic acid], 100%.
On the same count and under the same terms, with `O=C(O)c1cc(Oc2ccc(NS(=O)(=O)c3ccc(OC(F)(F)F)cc3)cc2)ccc1NS(=O)(=O)c1ccc(OC(F)(F)F)cc1` [Example 30:3, 2-(4-Trifluoromethoxybenzenesulfonylamino)-5-[4-(4-trifluoromethoxybenzene-sulfonylamino)phenoxy]benzoic acid] the figure was 100%; with `CC(C)Oc1ccc(C(=O)Nc2ccc(Oc3ccc(NC(=O)c4ccccc4)cc3)cc2CC(=O)O)cc1` [17:3, [5-(4-benzoylamino-phenoxy)-2-(4-isopropoxy-benzoyl-amino)-phenyl]-acetic acid], 87%.
On to `CCCCOc1ccc(S(=O)(=O)Nc2ccc(Oc3ccc(NC(=O)c4ccccc4)cc3)cc2CC(=O)O)cc1` [17:7, [5-(4-benzoylamino-phenoxy)-2-(4-butoxy-benzenesulfonyl-amino)-phenyl]-acetic acid], for which the inhibition at 10 µM in assay [2] (setting [3]) came out at 95%.
As for `O=C(Nc1ccc([S+]([O-])c2ccc(NC(=O)c3cccc(Cl)c3)c(C(=O)O)c2)cc1C(=O)O)c1cccc(Cl)c1` [15:2, 2-(3-chlorobenzamido)-5-(4-(3-chlorobenzamido)-3-carboxyphenylsulfinyl)benzoic acid], the inhibition at 10 µM in assay [2] (setting [3]) was 100%.
